The target of one assay is c-fms (Homo sapiens, UniProt P07333). Put plainly: c-fms autophosphorylation, fluorescence polarization competition immunoassay. It counts as biochemical. Conditions: 10 nM c-fms, 1 mM ATP, 5 mM MgCl2, 45 min room temperature; averages of three independent measurements; read-out: c-fms Autophosphorylation IC50. The protocol: Autophosphorylation, Fluorescence Polarization Competition Immunoassay
The assay buffer used was 100 mM 4-(2-hydroxyethyl)piperazine 1-ethanesulfonic acid (HEPES), pH 7.5, 1 mM 1,4-dithio-DL-threitol (DTT), 0.01% (v/v) Tween-20. Compounds were diluted in assay buffer containing 4% dimethylsulfoxide (DMSO) just prior to the assay. […] The kinase reaction was initiated by adding 2 μL of 5 mM ATP (Sigma) in assay buffer. The final concentrations in the assay were 10 nM c-fms, 1 mM ATP, 5 mM MgCl2, 2% DMSO. Control reactions were ran in each plate: in positive and negative control wells, assay buffer (made 4% in DMSO) was substituted for the compound; in addition, positive control wells received 1.2 μL of 50 mM ethylenediaminetetraaceticacid (EDTA).
The plates were incubated at room temperature for 45 min. At the end of the incubation, the reaction was quenched with 1.2 μL of 50 mM EDTA (EDTA was not added to the positive control wells at this point; see above). Following a 5-min incubation, each well received 10 μL of a 1:1:3 mixture of anti-phosphotyrosine antibody, 10×, PTK green tracer, 10× (vortexed), FP dilution buffer, respectively (all from PanVera, cat. # P2837). The plate was covered, incubated for 30 min at room temperature and the fluorescence polarization was read on the Analyst.
The IC50 values shown in Table 1 are averages of three independent measurements.
Background: Fluorescence polarisation rises when a labelled molecule tumbles more slowly, as on binding a larger partner.

For the next assay, the target named is CSF-1R (Homo sapiens, UniProt P07333). Put plainly: Peptide (non-phosphorylated) assay: fluorescence polarization competition immunoassay of CSF-1R phosphorylation of synthetic CSF-1R555-568 peptide. The assay is classed as biochemical. Particulars: 0.7 nM CSF-1R, 308 μM […], 1 mM ATP, 5 mM MgCl2, 80 min room temperature; mean of at least three determinations; read-out: c-fms Peptide IC50. The protocol:
Peptide (Non-Phosphorylated) Assay
The kinase reaction was initiated by adding 1 μL of 10 mM ATP in assay buffer. […] Positive and negative control wells were included on each plate, where 4% DMSO in assay buffer was substituted for the compound; in addition, positive control wells received 1.2 μL of 50 mM EDTA before the start of the reaction.
The plates were covered and incubated at room temperature for 80 min. Reactions were stopped by addition of 1.2 μL of 50 mM EDTA. Each well then received 10 μL of a 1:1:3 mixture of 10× anti-phosphotyrosine antibody, 10×PTK green tracer, and FP dilution buffer, respectively (Cat. # P2837, Invitrogen, Carlsbad, Calif.). The plates were covered, incubated for 30 min at room temperature, and the fluorescence polarization was read on an Analyst plate reader (Molecular Devices).

Sequence of c-fms (P07333 20-972): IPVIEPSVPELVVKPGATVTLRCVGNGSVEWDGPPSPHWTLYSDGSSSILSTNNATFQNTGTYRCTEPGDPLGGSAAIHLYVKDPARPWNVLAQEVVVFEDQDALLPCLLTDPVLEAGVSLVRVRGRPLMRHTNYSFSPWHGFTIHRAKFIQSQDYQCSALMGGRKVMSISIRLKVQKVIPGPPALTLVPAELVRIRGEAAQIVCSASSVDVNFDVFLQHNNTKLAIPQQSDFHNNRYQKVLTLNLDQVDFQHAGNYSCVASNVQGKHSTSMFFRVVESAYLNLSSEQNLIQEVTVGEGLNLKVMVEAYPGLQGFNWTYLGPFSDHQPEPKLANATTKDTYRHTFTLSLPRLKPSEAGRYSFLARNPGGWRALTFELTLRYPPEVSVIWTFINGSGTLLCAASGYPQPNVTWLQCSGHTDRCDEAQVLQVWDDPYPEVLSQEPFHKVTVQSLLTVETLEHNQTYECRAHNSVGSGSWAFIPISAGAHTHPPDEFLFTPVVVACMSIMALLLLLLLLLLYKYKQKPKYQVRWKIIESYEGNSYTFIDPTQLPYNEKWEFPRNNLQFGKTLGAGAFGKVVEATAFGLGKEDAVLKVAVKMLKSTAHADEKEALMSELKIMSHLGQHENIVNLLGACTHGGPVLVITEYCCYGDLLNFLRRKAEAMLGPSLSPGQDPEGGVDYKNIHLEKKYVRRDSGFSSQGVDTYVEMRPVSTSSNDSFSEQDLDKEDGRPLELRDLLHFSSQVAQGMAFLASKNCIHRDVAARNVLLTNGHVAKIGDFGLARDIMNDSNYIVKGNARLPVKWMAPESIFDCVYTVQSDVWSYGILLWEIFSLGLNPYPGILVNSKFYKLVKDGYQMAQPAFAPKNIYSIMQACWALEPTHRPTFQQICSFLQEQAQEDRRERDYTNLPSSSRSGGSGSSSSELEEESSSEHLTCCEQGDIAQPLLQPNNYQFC
Sequence of CSF-1R (P07333 20-972): as above

As a reminder, the IC50 is the concentration that gives 50% inhibition. Consider `CN1CCN(c2ccc(Nc3ncc4c(=O)c(C(N)=O)cn(-c5ccc6c(c5)CCC6)c4n3)cc2)CC1` [Cpd 7, 8-Indan-5-yl-2-[4-(4-methyl-piperazin-1-yl)-phenylamino]-5-oxo-5,8-dihydro-pyrido[2,3-d]pyrimidine-6-carboxylic acid amide], for which the IC50 at c-fms stood at 13 nM; at CSF-1R, 3.9 nM. In the same order, the values of `CN(C)CC(O)COc1ccc(Nc2ncc3c(=O)c(C(N)=O)cn(-c4ccc5c(c4)CCC5)c3n2)cc1` (centres unmarked) [Cpd 10, 2-[4-(3-Dimethylamino-2-hydroxy-propoxy)-phenylamino]-8-indan-5-yl-5-oxo-5,8-dihydro-pyrido[2,3-d]pyrimidine-6-carboxylic acid amide] are 13 nM and 2.7 nM. For `CNC(=O)c1cn(-c2ccc3c(c2)CCC3)c2nc(Nc3ccc(CCN4CCN(C)CC4)cc3)ncc2c1=O` [Cpd 47, 8-Indan-5-yl-2-{4-[2-(4-methyl-piperazin-1-yl)-ethyl]-phenylamino}-5-oxo-5,8-dihydro-pyrido[2,3-d]pyrimidine-6-carboxylic acid methyl amide], the IC50 at c-fms is 15 nM; at CSF-1R, 1.3 nM.

`CCNC(=O)c1cn(-c2ccc3c(c2)CCC3)c2nc(Nc3cccc(N4CCNCC4)c3)ncc2c1=O` [Cpd 54, 8-Indan-5-yl-5-oxo-2-(3-piperazin-1-yl-phenylamino)-5,8-dihydro-pyrido[2,3-d]pyrimidine-6-carboxylic acid ethyl amide]: the IC50 came out at 11 nM on c-fms and 1.1 nM at CSF-1R.

For `CC1CN(c2ccc(Nc3ncc4c(=O)c(C(N)=O)cn(-c5ccc6c(c5)CCC6)c4n3)cc2)CC(C)N1` (centres unmarked) [Cpd 43, 2-[4-(3,5-Dimethyl-piperazin-1-yl)-phenylamino]-8-indan-5-yl-5-oxo-5,8-dihydro-pyrido[2,3-d]pyrimidine-6-carboxylic acid amide], the concentration for half-maximal inhibition (IC50) at CSF-1R stood at 0.58 nM. As for `NC(=O)c1cn(-c2ccc3c(c2)CCC3)c2nc(Nc3cccc(N4CCNCC4)c3)ncc2c1=O` [Cpd 52, 8-Indan-5-yl-5-oxo-2-(3-piperazin-1-yl-phenylamino)-5,8-dihydro-pyrido[2,3-d]pyrimidine-6-carboxylic acid amide], the IC50 at c-fms came out at 5 nM; on CSF-1R it was 0.42 nM. For `CC1CN(c2cccc(Nc3ncc4c(=O)c(C(N)=O)cn(-c5ccc6c(c5)CCC6)c4n3)c2)CC(C)N1` (centres unmarked) [Cpd 55, 2-[3-(3,5-Dimethyl-piperazin-1-yl)-phenylamino]-8-indan-5-yl-5-oxo-5,8-dihydro-pyrido[2,3-d]pyrimidine-6-carboxylic acid amide], in that order: 6 nM and 0.51 nM. In the same order, the values of `NC(=O)c1cn(-c2ccc3c(c2)CCC3)c2nc(Nc3ccc(C4CCNCC4)cc3)ncc2c1=O` [Cpd 49, 8-Indan-5-yl-5-oxo-2-(4-piperidin-4-yl-phenylamino)-5,8-dihydro-pyrido[2,3-d]pyrimidine-6-carboxylic acid amide] are 8 nM and 0.49 nM. For `CN1CCN(Cc2cccc(Nc3ncc4c(=O)c(C(N)=O)cn(-c5ccc6c(c5)CCC6)c4n3)c2)CC1` [Cpd 23, 8-Indan-5-yl-2-[3-(4-methyl-piperazin-1-ylmethyl)-phenylamino]-5-oxo-5,8-dihydro-pyrido[2,3-d]pyrimidine-6-carboxylic acid amide], the figures for the IC50 at c-fms and on CSF-1R were 14 nM and 1.5 nM, respectively.

On to `CN(C)c1cccc(Nc2ncc3c(=O)c(C(N)=O)cn(-c4ccc5c(c4)CCC5)c3n2)c1` [Cpd 16, 2-(3-Dimethylamino-phenylamino)-8-indan-5-yl-5-oxo-5,8-dihydro-pyrido[2,3-d]pyrimidine-6-carboxylic acid amide], for which the IC50 at c-fms was 12 nM; on CSF-1R, 4.3 nM. In the same order, the values of `CNC(=O)c1cn(-c2ccc3c(c2)CCC3)c2nc(Nc3cccc(N4CCNCC4)c3)ncc2c1=O` [Cpd 53, 8-Indan-5-yl-5-oxo-2-(3-piperazin-1-yl-phenylamino)-5,8-dihydro-pyrido[2,3-d]pyrimidine-6-carboxylic acid methyl amide] are 8 nM and 0.46 nM. In the same order, the values of `CNC(=O)c1cn(-c2ccc3c(c2)CCC3)c2nc(Nc3ccc(C4CCNCC4)cc3)ncc2c1=O` [Cpd 50, 8-Indan-5-yl-5-oxo-2-(4-piperidin-4-yl-phenylamino)-5,8-dihydro-pyrido[2,3-d]pyrimidine-6-carboxylic acid methyl amide] are 15 nM and 0.97 nM.

As to `CNC(=O)c1cn(-c2ccc3c(c2)CCC3)c2nc(Nc3ccc(N4CC(C)NC(C)C4)cc3)ncc2c1=O` (centres unmarked) [Cpd 44, 2-[4-(3,5-Dimethyl-piperazin-1-yl)-phenylamino]-8-indan-5-yl-5-oxo-5,8-dihydro-pyrido[2,3-d]pyrimidine-6-carboxylic acid methyl amide], the IC50 on c-fms is 8 nM; on CSF-1R, 0.53 nM. In the same order, the values of `CNC(=O)c1cn(-c2ccc3c(c2)CCC3)c2nc(Nc3cccc(N4CC(C)NC(C)C4)c3)ncc2c1=O` (centres unmarked) [Cpd 56, 2-[3-(3,5-Dimethyl-piperazin-1-yl)-phenylamino]-8-indan-5-yl-5-oxo-5,8-dihydro-pyrido[2,3-d]pyrimidine-6-carboxylic acid methyl amide] are 10 nM and 1.1 nM. On to `CNC(=O)c1cn(-c2ccc3c(c2)CCC3)c2nc(Nc3ccc(C[C@H]4COC(=O)N4)cc3)ncc2c1=O` [Cpd 31, (4S)-8-Indan-5-yl-5-oxo-2-[4-(2-oxo-oxazolidin-4-ylmethyl)-phenylamino]-5,8-dihydro-pyrido[2,3-d]pyrimidine-6-carboxylic acid methyl amide], for which the IC50 at c-fms was 20 nM. Still for that read-out and setting: then `CN1CCN(c2cccc(Nc3ncc4c(=O)c(C(N)=O)cn(C5CCCCC5)c4n3)c2)CC1` [Cpd 63, 8-Cyclohexyl-2-[3-(4-methyl-piperazin-1-yl)-phenylamino]-5-oxo-5,8-dihydro-pyrido[2,3-d]pyrimidine-6-carboxylic acid amide], with 21 nM; and `NC(=O)c1cn(-c2ccc3c(c2)CCC3)c2nc(Nc3ccc(C[C@H]4COC(=O)N4)cc3)ncc2c1=O` [Cpd 30, (4S)-8-Indan-5-yl-5-oxo-2-[4-(2-oxo-oxazolidin-4-ylmethyl)-phenylamino]-5,8-dihydro-pyrido[2,3-d]pyrimidine-6-carboxylic acid amide], with 12 nM. Consider `CNC(=O)c1cn(-c2ccc3c(c2)CCC3)c2nc(Nc3ccc(OCC(O)CN(C)C)cc3)ncc2c1=O` (centres unmarked) [Cpd 11, 2-[4-(3-Dimethylamino-2-hydroxy-propoxy)-phenylamino]-8-indan-5-yl-5-oxo-5,8-dihydro-pyrido[2,3-d]pyrimidine-6-carboxylic acid methylamide], for which the IC50 on c-fms is 46 nM; on CSF-1R, 5.6 nM.

Turning to `CN1CCN(c2ccc(Nc3ncc4c(=O)c(C(N)=O)cn(C5CC6CCC5C6)c4n3)cc2)CC1` (centres unmarked) [Cpd 82, 8-Bicyclo[2.2.1]hept-2-yl-2-[4-(4-methyl-piperazin-1-yl)-phenylamino]-5-oxo-5,8-dihydro-pyrido[2,3-d]pyrimidine-6-carboxylic acid amide], the IC50 on c-fms was found to be 81 nM. On the same count and under the same terms, then `CN(C)c1ccc(Nc2ncc3c(=O)c(C(N)=O)cn(-c4ccc5c(c4)CCC5)c3n2)cc1` [Cpd 15, 2-(4-Dimethylamino-phenylamino)-8-indan-5-yl-5-oxo-5,8-dihydro-pyrido[2,3-d]pyrimidine-6-carboxylic acid amide], with 70 nM.

As for `CNC(=O)c1cn(-c2ccc3c(c2)CCC3)c2nc(Nc3ccc(CCN4CCOCC4)cc3)ncc2c1=O` [Cpd 28, 8-Indan-5-yl-2-[4-(2-morpholin-4-yl-ethyl)-phenylamino]-5-oxo-5,8-dihydro-pyrido[2,3-d]pyrimidine-6-carboxylic acid methyl amide], the IC50 amounted to 30 nM at c-fms and 1.6 nM on CSF-1R. For the molecule `CNC(=O)c1cn(C2CCCCC2)c2nc(Nc3ccc(CCN4CCOCC4)cc3)ncc2c1=O` [Cpd 58, 8-Cyclohexyl-2-[4-(2-morpholin-4-yl-ethyl)-phenylamino]-5-oxo-5,8-dihydro-pyrido[2,3-d]pyrimidine-6-carboxylic acid methyl amide], at c-fms, the IC50 was found to be 120 nM. In the case of `CNC(=O)c1cn(-c2ccc3c(c2)CCC3)c2nc(Nc3ccc(CCS(=O)(=O)NC(C)C)cc3)ncc2c1=O` [Cpd 33, 8-Indan-5-yl-2-[4-(2-isopropylsulfamoyl-ethyl)-phenylamino]-5-oxo-5,8-dihydro-pyrido[2,3-d]pyrimidine-6-carboxylic acid methyl amide], on c-fms, the IC50 turned out to be 100 nM.

These data come from patent US7642270B2, “5-oxo-5,8-dihydro-pyrido-pyrimidine as inhibitors of c-fms kinase” (Janssen Pharmaceutica N.V., priority 2005, dated 2010).
